The results in this text go back to US20210052701A1, “Methods of Treating Vascular Leakage Using CXCL12 Peptides” (The Medical College of Wisconsin, Inc., priority 2018, published 2021).

“Also recorded” adds a separate entry of the source.

Test [1] relates to hPPAEC. Put plainly: Effects of CXCR4 agonists / CXCL12 variants on thrombin-induced impairment of hPPAEC monolayer permeability. The class given is cell-based, human. In outline:
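Confluent hPPAEC monolayers on collagen-coated permeable membranes were exposed to 35 nM thrombin; 10 min later, agonists or CXCL12 variants (0.05–50 nM) were added, ± AMD3100 10 μM. FITC-dextran (20 μg/mL) crossing the monolayer was read by fluorescence over 255 min. % inhibition of hyperpermeability was taken at 255 min; N=3 in quadruplicate.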

The subject of test [2] is animal model of acute respiratory distress syndrome (ARDS). Put plainly: Animal model of ARDS: lung ischemia reperfusion injury plus hemorrhage (P:F ratio, lung injury score). The class given is in vivo, Sprague-Dawley rats. Here is the method: Animals underwent 70 min of […] lung ischemia for 70 min plus hemorrhage to a MAP of 40 mmHg for the last 30 min of ischemia, followed by fluid resuscitation to a MAP of 60 mmHg until t=300 min. Arrow: drug injection. Dashed lines indicate the P:F ratio (mmHg) threshold values for the diagnosis of mild, moderate and severe ARDS. Vehicle: n=5. CXCL12: n=3. CXCL12: n=4. CXCL12-LM: n=3, CXCL12-LD: n=4. CXCL12 K27A/R41A/R47A: n=3. LI+HEM: lung ischemia reperfusion injury plus hemorrhage. Data are mean±SEM. *: p<0.05 vs. vehicle (2-way ANOVA/Dunnett's multiple comparisons test).
FIGS. 12A-12C show lung histology after treatment with CXCL12 and engineered CXCR4 agonists A. Lung specimens were placed in formalin fixative solution and were then embedded in paraffin wax, sliced into 5 μm sections and stained with H&E. Representative images from H&E stained lung sections from animals after vehicle (left) and CXCL12 ([…], right treatment. B/C. Lung injury scores (B. uninjured (left) lung; C. injured (right) lung). Data are median±interquartile ranges. Data were analyzed with the Kruskal Wallis test with Dunn's multiple comparisons test. The level of statistical significance (p) vs. ctrl. (vehicle treatment) indicated.
We tested therapeutic efficacy of wild-type CXCL12, CXXL12-locked dimer (LD), CXCL12-locked monomer (LM) and the triple mutant CXCL12 K27A/R41A/R47A in an animal model of acute respiratory distress syndrome (ARDS) (FIG. 11). All drugs were injected in a dose of 0.14 μmol/kg. Male Sprague-Dawley rats were anesthetized, orotracheally intubated, instrumented with arterial/venous catheters, and mechanically ventilated (PEEP 2 mmHg, FiO2 1.0). After a right lateral thoracotomy, a suture was tied around the hilum of the right lung. Animals underwent 70 min of right lung ischemia plus hemorrhage to a mean arterial blood pressure (MAP) of 40 mmHg for the last 30 min of lung ischemia. At t=70 min, the suture was removed, animals were ventilated with FiO2 1.0, PEEP 5 mmHg and resuscitated with crystalloids to a MAP of 60 mmHg until t=300 min. Vehicle and drugs were injected i.v. within 10 min after reperfusion.
We further evaluated histomorphology of the lungs from animals treated with vehicle, wild-type CXCL12, CXCL12-LD and CXCXL12-LM utilizing a standardized lung injury score. Lung slides stained with hematoxylin and eosin were examined under a light microscope by 4 investigators blinded to the identity of the specimens. The lung injury score was assessed as previously described/. In brief each investigator rendered a score of 0 (no damage) to 4+(maximal damage) based on an injury grading scale composed of six criteria. The slides were assessed for the extent of alveolar congestion, hemorrhage and edema, as well as alveolar and vessel wall PMN infiltration and alveolar wall thickness. […] Lung injury scores of the uninjured and injured lungs from animals treated with vehicle, wild-type CXCL12, CXCL12-LD and CXCXL12-LM are shown in FIGS. […], respectively.

Turning to “CXCL12: Wild-type CXCL12 (SEQ ID NO:1), cognate agonist of CXCR4 and ACKR3”, the “effect of pre-treatment on thrombin-induced hyper-permeability of hPPAEC” value in test [1] (100 nM for 10 min, then thrombin (50 nM)) is “significantly attenuated thrombin-induced hyper-permeability of hPPAEC; also recorded: more efficacious than ubiquitin”. The “effect on thrombin-induced permeability of hPPAEC when added after thrombin” value in test [1] (thrombin 35 nM, after 10 min CXCL12 or ubiquitin 50 nM, AMD3100 10 μM) is “significantly attenuated thrombin-induced permeability of hPPAEC”. Moreover, the “development of ARDS (P:F ratio)” value in test [2] (0.14 μmol/kg i.v. within 10 min after reperfusion, until t=300 min) was “development of ARDS was delayed and attenuated”. Also, the “time at which criteria for mild ARDS were fulfilled” value in test [2] (0.14 μmol/kg i.v., P:F ratio<300 mmHg) came out at 300 min. In addition, the “P:F ratios compared with vehicle treated animals” value in test [2] (0.14 μmol/kg i.v., t=90-240 min) was “significantly higher”. Moreover, the “histological signs of lung injury, injured lung (lung injury score)” value in test [2] (H&E sections, vs. vehicle) was “significantly reduced”.
